Here are results for 14 compounds from PubChem BioAssay (NCI).

Values joined by “and” are separate entries in the source; they are usually repeats but may differ in a detail not shown here. Equal values may be shown once.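 Results reflect a 48-hour exposure of cells in 96-well plates to compound at five concentrations. GI50: concentration for 50% inhibition of growth. At the TGI there is no net growth.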 Some results are limits rather than exact numbers.

Test systems include SNB-19 CNS; PC-3 prostate; MOLT-4 leukemia; A549 NSCLC; SW-620 colon; HS 578T breast.
What all share (assay): inhibition of tumour cell growth, NCI panel, 48 h

For `CCOC(=O)[C@@H](C)C[C@H](Cc1ccccc1)NC(=O)c1csc([C@@H](C[C@H](C(C)C)N(C)C(=O)[C@@H](NC(=O)[C@H]2C[C@H](O)CCN2C)C(C)C)OC(C)=O)n1`, the GI50 is 0.00312 µM in the assay with SNB-19 CNS; 0.00187 µM with PC-3 prostate; 0.00714 µM with MOLT-4 leukemia; 0.0356 µM with A549 NSCLC; 0.00417 µM in the assay on SW-620 colon; 0.00906 µM in the assay with HS 578T breast. The TGI in the assay with SNB-19 CNS, in the assay with PC-3 prostate, in the assay on MOLT-4 leukemia, with A549 NSCLC, in the assay with SW-620 colon and in the assay on HS 578T breast was > 16.7 µM throughout.
For the compound `Cc1cc(=O)oc2cc(OC(=O)Nc3ccccc3)ccc12`, the TGI in the assay on SNB-19 CNS, with PC-3 prostate, in the assay on MOLT-4 leukemia, with A549 NSCLC, in the assay with SW-620 colon and in the assay with HS 578T breast was > 100 µM throughout.
In the case of `C/C(=N/NC(=S)N1CC2CCC(CC2)C1)c1cnccn1`, the TGI in the assay with SNB-19 CNS worked out at 14.2 µM; in the assay with PC-3 prostate, 8.46 µM; with MOLT-4 leukemia it was 1.32 µM; with A549 NSCLC, 10.4 µM; with SW-620 colon it was 12.4 µM; in the assay with HS 578T breast, 11.4 µM.
As for `COc1cc2c(cc1OCCCCn1c(-c3cccs3)nc3ccccc31)N=C[C@@H]1CCCN1C2=O`, the GI50 in the assay on SNB-19 CNS is 1.53 µM; with MOLT-4 leukemia, 3.79 µM; in the assay on A549 NSCLC, 3.22 µM; in the assay on SW-620 colon it was 1.84 µM; in the assay with HS 578T breast it was 1.7 µM. Besides, the TGI in the assay with SNB-19 CNS was 4.39 µM; in the assay with MOLT-4 leukemia, > 100 µM; in the assay on A549 NSCLC, > 100 µM; in the assay with SW-620 colon, 10.3 µM; in the assay with HS 578T breast, 6.43 µM.
On to `NC(=O)CCc1ccccc1Oc1nccc(-c2c(-c3ccc(F)cc3)ncn2C2CCNCC2)n1`, for which the GI50 in the assay on SNB-19 CNS, in the assay with PC-3 prostate, with MOLT-4 leukemia, with A549 NSCLC, in the assay on SW-620 colon and in the assay with HS 578T breast was > 25 µM each time. Also, the TGI in the assay with SNB-19 CNS, with PC-3 prostate, in the assay on MOLT-4 leukemia, in the assay on A549 NSCLC, in the assay with SW-620 colon and with HS 578T breast was > 25 µM each time.
In the case of `CC1(C)OC2C(CO)OC(n3ccc(N)nc3=O)C2O1` (stereo not given), the TGI with SNB-19 CNS, in the assay on PC-3 prostate, with MOLT-4 leukemia, with A549 NSCLC, with SW-620 colon and in the assay with HS 578T breast was > 100 µM in each case.
As to `CCCCN(CC)CCCCCCCCCCN1CCCc2cc(OC)ccc21`, the GI50 was 4.01 µM with SNB-19 CNS; 3.06 µM with PC-3 prostate; 3.09 µM in the assay with MOLT-4 leukemia; 5.21 µM in the assay with A549 NSCLC; 2.23 µM in the assay with SW-620 colon; 4.2 µM in the assay with HS 578T breast. Besides, the TGI in the assay with SNB-19 CNS was 18.8 µM; with PC-3 prostate, 12.7 µM; in the assay with MOLT-4 leukemia, 10.5 µM; with A549 NSCLC, 20.9 µM; in the assay on SW-620 colon it was 6.24 µM; in the assay on HS 578T breast, > 100 µM.
Turning to `O=c1[nH]c(F)nc2c1ncn2C1OC(CO)C(O)C1O` (stereo not given), the GI50 in the assay on SNB-19 CNS, in the assay with PC-3 prostate, in the assay with MOLT-4 leukemia, in the assay with A549 NSCLC, in the assay with SW-620 colon and with HS 578T breast was > 100 µM throughout. Besides, the TGI in the assay with SNB-19 CNS, in the assay on PC-3 prostate, in the assay with MOLT-4 leukemia, in the assay on A549 NSCLC, with SW-620 colon and in the assay with HS 578T breast was > 100 µM each time.
`Cc1ccc(NC(=O)c2nc(S(C)(=O)=O)oc2-c2ccc(F)cc2)cc1Nc1ccc2ncn(C)c(=O)c2c1`: the GI50 in the assay on SNB-19 CNS was 3.46 µM; in the assay on PC-3 prostate, 2.13 µM; with A549 NSCLC, 13.9 µM; with HS 578T breast, 3.06 µM. Besides, the TGI with SNB-19 CNS was determined as 9.86 µM; in the assay on PC-3 prostate, 4.47 µM; with A549 NSCLC, 29.5 µM; with HS 578T breast, 14.9 µM.
For `CC(C)OCc1cc(CN2CCN(c3cccc(Cl)c3)CC2)c(O)c2ncccc12`, the GI50 with SNB-19 CNS is 0.504 µM; with PC-3 prostate, 0.525 µM; in the assay with MOLT-4 leukemia it was 0.362 µM; with A549 NSCLC, 0.512 µM; with SW-620 colon it was 0.852 µM; in the assay on HS 578T breast it was 4.03 µM. Further, the TGI in the assay on SNB-19 CNS was found to be 21.7 µM; in the assay with PC-3 prostate, 16.9 µM; in the assay on MOLT-4 leukemia, 3.41 µM; in the assay on A549 NSCLC it was 11.9 µM; with SW-620 colon, 17.4 µM; in the assay on HS 578T breast, 35.3 µM.
As for `O=C(O)c1cn(C2CC2)c2cc(N3CCN(C(=O)Nc4nc(-c5ccc(Br)cc5)cs4)CC3)c(F)cc2c1=O`, the GI50 in the assay with SNB-19 CNS was 1.41 µM; in the assay on MOLT-4 leukemia, 0.622 µM; with A549 NSCLC, 3.68 µM; with SW-620 colon, 4.13 µM; in the assay on HS 578T breast, 1.91 µM. Further, the TGI in the assay on SNB-19 CNS, in the assay with MOLT-4 leukemia, in the assay on A549 NSCLC, in the assay on SW-620 colon and in the assay with HS 578T breast was > 100 µM in each case.
For `O=C(/C=C/c1nnc2n(Cc3ccccc3)c(=O)c3c4c(sc3n12)CCCC4)c1ccccc1`, the GI50 was > 100 µM in the assay on SNB-19 CNS; 1.42 µM in the assay on PC-3 prostate; 0.622 µM and 0.248 µM in the assay on MOLT-4 leukemia; 3.14 µM in the assay on SW-620 colon; 3.76 µM and 0.502 µM with HS 578T breast. For the same compound, the TGI in the assay on SNB-19 CNS is > 100 µM; with PC-3 prostate, 4.44 µM; in the assay on MOLT-4 leukemia, 0.769 µM; with HS 578T breast, > 100 µM.
As for `Cn1c(=O)c2[nH]c(CCCc3ccc([N+](=O)[O-])cc3)nc2n(C)c1=O`, the TGI with SNB-19 CNS, with PC-3 prostate, with MOLT-4 leukemia, in the assay on A549 NSCLC and in the assay with HS 578T breast was > 100 µM throughout.
Regarding `N#Cc1c2ccccc2c2nnc3ccc(C(F)(F)F)cc3n12`, the GI50 in the assay on SNB-19 CNS is > 100 µM; with PC-3 prostate, 61.1 µM; in the assay on MOLT-4 leukemia it was 10.4 µM; in the assay on A549 NSCLC, 26.9 µM; in the assay with SW-620 colon, 66.7 µM. The TGI with SNB-19 CNS, in the assay with PC-3 prostate, in the assay with MOLT-4 leukemia, with A549 NSCLC and in the assay with SW-620 colon was > 100 µM each time.
